Reference: ChEMBL document CHEMBL4118067, “Isosteroidal alkaloids as potent dual-binding site inhibitors of both acetylcholinesterase and butyrylcholinesterase from the bulbs of Fritillaria walujewii” (Eur J Med Chem, 2017)
Activity calls are given as the source filed them. The calls are words filed in the database; no cut-off is given here.

Columns and labels:
Acetylcholinesterase = Acetylcholinesterase (Electrophorus electricus, UniProt O42275); assay: Inhibition of electric eel AChE using acetylthiocholine iodide as substrate preincubated for 15 mins followed by substrate addition measured for 30 mins by Ellman's method
Sequence of Acetylcholinesterase (O42275 whole entry): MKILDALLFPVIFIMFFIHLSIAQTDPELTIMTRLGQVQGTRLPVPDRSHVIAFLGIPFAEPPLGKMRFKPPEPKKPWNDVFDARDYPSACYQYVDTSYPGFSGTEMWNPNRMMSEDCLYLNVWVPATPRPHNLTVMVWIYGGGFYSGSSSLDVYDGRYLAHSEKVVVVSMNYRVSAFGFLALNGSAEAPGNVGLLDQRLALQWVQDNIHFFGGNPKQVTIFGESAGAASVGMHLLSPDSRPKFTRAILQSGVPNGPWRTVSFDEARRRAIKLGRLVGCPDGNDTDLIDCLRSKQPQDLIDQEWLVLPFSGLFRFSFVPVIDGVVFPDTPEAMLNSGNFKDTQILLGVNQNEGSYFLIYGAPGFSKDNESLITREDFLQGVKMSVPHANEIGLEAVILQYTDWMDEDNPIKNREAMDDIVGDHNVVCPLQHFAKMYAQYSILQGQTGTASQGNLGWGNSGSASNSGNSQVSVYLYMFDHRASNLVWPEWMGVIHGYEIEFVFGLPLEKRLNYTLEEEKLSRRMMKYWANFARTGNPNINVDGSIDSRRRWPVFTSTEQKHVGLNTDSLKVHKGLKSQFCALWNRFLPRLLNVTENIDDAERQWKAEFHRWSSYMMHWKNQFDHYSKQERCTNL

[1] = biological target: Acetylcholinesterase (Electrophorus electricus) (UniProt O42275); assay: Mixed-type inhibition of electric eel AChE at 6 to 24 uM using acetylthiocholine iodide as substrate preincubated for 15 mins followed by substrate addition measured for 30 mins by Lineweaver-Burk plot method
Sequence of Acetylcholinesterase (Electrophorus electricus) (O42275 24-633 limits assumed): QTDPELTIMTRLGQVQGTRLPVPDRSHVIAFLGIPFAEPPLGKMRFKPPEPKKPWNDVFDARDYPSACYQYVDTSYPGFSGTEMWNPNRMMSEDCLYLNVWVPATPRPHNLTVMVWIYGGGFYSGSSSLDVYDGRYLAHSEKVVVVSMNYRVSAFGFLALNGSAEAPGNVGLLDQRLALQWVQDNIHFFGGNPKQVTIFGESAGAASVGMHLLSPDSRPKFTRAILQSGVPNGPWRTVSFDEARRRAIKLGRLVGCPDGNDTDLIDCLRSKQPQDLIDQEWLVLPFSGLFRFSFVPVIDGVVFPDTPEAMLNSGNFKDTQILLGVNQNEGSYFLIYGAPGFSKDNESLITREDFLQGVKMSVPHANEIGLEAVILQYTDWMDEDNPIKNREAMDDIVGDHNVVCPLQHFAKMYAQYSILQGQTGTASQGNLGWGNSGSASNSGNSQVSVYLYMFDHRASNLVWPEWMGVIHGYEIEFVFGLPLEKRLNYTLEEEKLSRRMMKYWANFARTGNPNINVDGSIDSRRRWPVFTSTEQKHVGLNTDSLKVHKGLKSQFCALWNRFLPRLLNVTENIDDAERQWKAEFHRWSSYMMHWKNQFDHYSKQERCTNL

[2] = biological target: Acetylcholinesterase (Electrophorus electricus) (UniProt O42275); assay: Reversible inhibition of electric eel AChE at 6 to 16 uM using acetylthiocholine iodide as substrate preincubated for 15 mins followed by substrate addition measured for 30 mins by Ellman's method
Cholinesterase = Cholinesterase (Equus caballus, UniProt P81908); assay: Inhibition of equine serum BChE using butyrylthiocholine iodide as substrate preincubated for 15 mins followed by substrate addition measured for 30 mins by Ellman's method
Sequence of Cholinesterase (P81908 whole entry): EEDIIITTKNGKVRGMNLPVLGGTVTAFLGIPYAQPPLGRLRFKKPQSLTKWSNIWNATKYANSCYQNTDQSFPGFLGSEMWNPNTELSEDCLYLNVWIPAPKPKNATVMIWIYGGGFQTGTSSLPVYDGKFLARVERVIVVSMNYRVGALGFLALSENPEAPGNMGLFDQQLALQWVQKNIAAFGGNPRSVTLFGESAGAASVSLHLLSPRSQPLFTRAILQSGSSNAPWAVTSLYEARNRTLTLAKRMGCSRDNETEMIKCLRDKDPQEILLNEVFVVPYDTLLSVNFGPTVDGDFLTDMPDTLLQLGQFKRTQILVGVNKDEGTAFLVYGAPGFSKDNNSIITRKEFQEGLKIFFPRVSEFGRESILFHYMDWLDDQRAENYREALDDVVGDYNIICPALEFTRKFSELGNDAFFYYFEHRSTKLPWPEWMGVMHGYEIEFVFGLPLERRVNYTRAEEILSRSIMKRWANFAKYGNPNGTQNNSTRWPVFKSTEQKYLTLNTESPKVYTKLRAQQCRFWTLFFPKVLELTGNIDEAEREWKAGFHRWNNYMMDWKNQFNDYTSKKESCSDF

[3] = Selectivity index, ratio of IC50 for equine serum BChE to IC50 for electric eel AChE
[4] = biological target: Acetylcholinesterase (Electrophorus electricus) (UniProt O42275); assay: Reversible inhibition of electric eel AChE at 2 to 10 uM using acetylthiocholine iodide as substrate preincubated for 15 mins followed by substrate addition measured for 30 mins by Ellman's method
[5] = biological target: Acetylcholinesterase (Electrophorus electricus) (UniProt O42275); assay: Mixed-type inhibition of electric eel AChE at 2 to 10 uM using acetylthiocholine iodide as substrate preincubated for 15 mins followed by substrate addition measured for 30 mins by Lineweaver-Burk plot method
[6] = biological target: Acetylcholinesterase (Electrophorus electricus) (UniProt O42275); assay: Mixed-type inhibition of electric eel AChE at 4 to 20 uM using acetylthiocholine iodide as substrate preincubated for 15 mins followed by substrate addition measured for 30 mins by Lineweaver-Burk plot method
[7] = biological target: Acetylcholinesterase (Electrophorus electricus) (UniProt O42275); assay: Reversible inhibition of electric eel AChE at 4 to 12 uM using acetylthiocholine iodide as substrate preincubated for 15 mins followed by substrate addition measured for 30 mins by Ellman's method
[8] = biological target: Acetylcholinesterase (Electrophorus electricus) (UniProt O42275); assay: Mixed-type inhibition of electric eel AChE at 4 to 16 uM using acetylthiocholine iodide as substrate preincubated for 15 mins followed by substrate addition measured for 30 mins by Lineweaver-Burk plot method
[9] = biological target: Acetylcholinesterase (Electrophorus electricus) (UniProt O42275); assay: Mixed-type inhibition of electric eel AChE at 8 to 32 uM using acetylthiocholine iodide as substrate preincubated for 15 mins followed by substrate addition measured for 30 mins by Lineweaver-Burk plot method
[10] = biological target: Acetylcholinesterase (Electrophorus electricus) (UniProt O42275); assay: Mixed-type inhibition of electric eel AChE at 7 to 28 uM using acetylthiocholine iodide as substrate preincubated for 15 mins followed by substrate addition measured for 30 mins by Lineweaver-Burk plot method

In the case of C[C@H]1CC[C@@H]2[C@@H](C)[C@@H]3CC[C@@H]4[C@@H](C[C@H]5[C@H]4C[C@@H](O)[C@H]4C[C@@H](O[C@@H]6O[C@H](CO)[C@@H](O)[C@H](O)[C@H]6O)CC[C@@]45C)[C@@H]3CN2C1, the IC50 (Acetylcholinesterase) is reported as 10.8 µM, the inhibition [1] is reported as “Active” and the inhibition [2] is reported as “Active”. The IC50 (Cholinesterase) was 3.89 µM and the Ratio IC50 [3] was 0.36.

For C[C@H]1CC[C@@H]2[C@@H](C)[C@@H]3CC[C@@H]4[C@@H](C[C@H]5[C@H]4C[C@@H](O)[C@H]4C[C@@H](O)CC[C@@]45C)[C@@H]3CN2C1, the IC50 (Acetylcholinesterase) was 5.85 µM, the inhibition [4] was “Active” and the inhibition [5] was “Active”. For the same molecule, the IC50 (Cholinesterase) was 2.08 µM and the Ratio IC50 [3] was 0.36.

With C[C@H]1CC[C@H]2[C@H](C)[C@@H]3CC[C@@H]4[C@@H](C[C@H]5[C@H]4CC(=O)[C@H]4C[C@@H](O)CC[C@@]45C)[C@@H]3CN2C1 the IC50 (Acetylcholinesterase) was 8.37 µM, the inhibition [6] was “Active” and the inhibition [7] was “Active”. It also gave an IC50 (Cholinesterase) of 3.05 µM and a Ratio IC50 [3] of 0.36.

For C[C@H]1CC[C@@H]2[C@@H](C)[C@@H]3CC[C@@H]4[C@@H](C[C@H]5[C@H]4C[C@H](O)[C@H]4C[C@@H](O)CC[C@@]45C)[C@@H]3CN2C1, the IC50 (Acetylcholinesterase) was 7.19 µM, the inhibition [4] was “Active” and the inhibition [8] was “Active”. It also gave an IC50 (Cholinesterase) of 2.58 µM and a Ratio IC50 [3] of 0.36.

C[C@H]1CC[C@@H]2[C@@H](C)[C@@H]3CC[C@@H]4[C@@H](C[C@H]5[C@H]4C[C@H](O)[C@H]4C[C@@H](O[C@@H]6O[C@H](CO)[C@@H](O)[C@H](O)[C@H]6O)CC[C@@]45C)[C@@H]3CN2C1 gave an IC50 (Acetylcholinesterase) of 51.5 µM, an IC50 (Cholinesterase) of 13.5 µM and a Ratio IC50 [3] of 0.26.

With C=C1C2(CC[C@H]3[C@@H]4CC(=O)[C@H]5C[C@@H](O)CC[C@]5(C)[C@H]4C[C@@]13O)O[C@@H]1C[C@H](C)CN[C@H]1[C@H]2C (stereo partly drawn) the IC50 (Acetylcholinesterase) was 7.6 µM, the inhibition [4] was “Active” and the inhibition [9] was “Active”. The IC50 (Cholinesterase) was 958 µM and the Ratio IC50 [3] was 126.

Molecule CC1=C2C[C@H]3[C@@H](CC(=O)[C@H]4C[C@@H](O)CC[C@@]43C)[C@@H]2CCC12O[C@@H]1C[C@H](C)CN[C@H]1[C@H]2C (stereo partly drawn) has an IC50 (Acetylcholinesterase) of 94 µM, an IC50 (Cholinesterase) of 153 µM and a Ratio IC50 [3] of 1.63.

With C[C@H]1CC[C@H]2[C@H](C)[C@H]3CC[C@@H]4[C@@H](C[C@H]5[C@H]4C[C@@H](O)[C@H]4C[C@@H](O)CC[C@@]45C)[C@@H]3CN2C1 the IC50 (Acetylcholinesterase) was 45.8 µM, the IC50 (Cholinesterase) was 18.6 µM and the Ratio IC50 [3] was 0.41.

With C[C@H]1CC[C@H]2[C@H](C)[C@@H]3CC[C@@H]4[C@@H](C[C@H]5[C@H]4CC(=O)[C@H]4C[C@@H](O[C@@H]6O[C@H](CO)[C@@H](O)[C@H](O)[C@H]6O)CC[C@@]45C)[C@@H]3CN2C1 the IC50 (Acetylcholinesterase) was 11.5 µM, the inhibition [2] was “Active” and the inhibition [10] was “Active”. It also gave an IC50 (Cholinesterase) of 6.8 µM and a Ratio IC50 [3] of 0.59.

With C[C@H]1CC[C@@H]2N(C1)C[C@H]1[C@@H]3C[C@H]4[C@@H](CC(=O)[C@H]5C[C@@H](O)CC[C@@]54C)[C@@H]3CC[C@H]1[C@]2(C)O [IMPERIALINE] the IC50 (Acetylcholinesterase) was over 100 µM and the IC50 (Cholinesterase) was over 100 µM.

With C[C@H]1CC[C@@H]2N(C1)C[C@H]1[C@@H]3C[C@H]4[C@@H](CC(=O)[C@H]5C[C@@H](O[C@@H]6O[C@H](CO)[C@@H](O)[C@H](O)[C@H]6O)CC[C@@]54C)[C@@H]3CC[C@H]1[C@]2(C)O the IC50 (Acetylcholinesterase) was over 100 µM and the IC50 (Cholinesterase) was over 100 µM.

With C[C@H]1CC[C@H]2[C@H](C)[C@@H]3CC[C@@H]4[C@@H](C[C@H]5[C@H]4CC(=O)[C@H]4C[C@@H](O[C@@H]6O[C@H](CO)[C@@H](O[C@@H]7O[C@H](CO)[C@@H](O)[C@H](O)[C@H]7O)[C@H](O)[C@H]6O)CC[C@@]45C)[C@@H]3CN2C1 the IC50 (Acetylcholinesterase) was 9.88 µM, the inhibition [1] was “Active” and the inhibition [2] was “Active”. The IC50 (Cholinesterase) was 5.71 µM and the Ratio IC50 [3] was 0.58.
